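Test compounds were applied to cells in 96-well plates for 48 hours at 5 doses. The concentration for 50% growth inhibition is given as GI50. Definition used: TGI = concentration required for complete inhibition of growth.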
Each compound was assayed on HL-60(TB) leukemia (assay: DTP human tumour cell line panel, 48 h).
`O=C(CCN1CCOCC1)Nc1cccc(-n2cc(-c3ccncc3)c(-c3ccc(Cl)c(O)c3)n2)c1` showed a GI50 of 2.37 µM and a TGI of 6.61 µM. For `C=C(C)[C@@H]1CC[C@]2(C)[C@H](CC[C@@H]3[C@@H]([C@@](C)(O)CCC=C(C)C)CC[C@]32C)[C@@]1(C)CCC(=O)O`, the GI50 was 20.6 µM and the TGI was 54.5 µM. In the case of `c1ccc(NCCSc2nc3ccccc3s2)cc1`, the TGI is reported as greater than 100 µM. In the case of `Oc1ccc(Oc2cnc3ccccc3n2)cc1`, the GI50 is reported as 26.3 µM and the TGI is reported as greater than 100 µM. In the case of `Cc1ccc2occ/c(=N\Nc3ccccc3)c2c1`, the TGI is reported as greater than 100 µM. For `CC(=O)NC1CONC1=O` (stereo not drawn), the TGI was greater than 100 µM. `Oc1ccc(N=Nc2nccs2)c(O)c1` was tested, and the GI50 was 3.41 µM and the TGI was greater than 100 µM. `COc1cc(/C=C/C(=O)Oc2ccccc2)ccc1C(=O)O/C=C/c1ccccc1` was tested, and the TGI was greater than 100 µM. `CC(Cl)CN1c2ccccc2Sc2ccc(Cl)cc21` (stereo not drawn) showed a TGI greater than 10 µM. `O=C1c2ccccc2C(=O)c2c(NCCN=Cc3ccccc3O)cccc21` gave a GI50 of 0.235 µM and a TGI of 3.89 µM. Work on `Oc1ccc(/C=C/c2cc(O)cc3c2C(c2cc(O)cc(O)c2)C(c2ccc(O)c(O)c2)O3)cc1` (stereo not drawn) yielded a TGI of 54.5 µM. `CC1(C)N=C(N)N=C(N)N1c1cccc(OCCOc2cccc([N+](=O)[O-])c2)c1` was tested, and the GI50 was 1.18 µM and the TGI was greater than 77.8 µM. With `CCc1nc(Cl)c(Cl)c(Cl)n1` the TGI was greater than 100 µM. Compound `O=[N+]([O-])c1ccc(Sc2c3ccccc3nc3ccccc23)cn1` has a TGI greater than 61.7 µM. `CNC(C)[C@H]1CCC2C3CC=C4C(=O)[C@@H](NC(=O)C=C(C)C)CC[C@]4(C)C3CC[C@@]21C` (stereo partly drawn) showed a GI50 of 1.83 µM and a TGI of 4.75 µM. `Clc1nc(Cl)c2ncn(Cc3ccccc3Cn3cnc4c(Cl)nc(Cl)nc43)c2n1` gave a GI50 of 1.79 µM and a TGI of 9.14 µM. `CS(=O)(=O)CS(=O)(=O)OCCCl` gave a TGI of 541 µM. `CC(C)(C)c1cc(C(=O)/C=C/c2ccc(C(=O)O)cc2)cc(C(C)(C)C)c1` showed a TGI greater than 100 µM. Compound `COc1ccc(-c2ccc(NNC(=O)c3ccc(F)cc3)nn2)cc1OC` has a GI50 of 33.5 µM and a TGI greater than 100 µM. For `Cc1noc2c1-c1ccccc1C(c1ccc(Cl)cc1)=N[C@H]2CC(N)=O`, the GI50 was 0.398 µM and the TGI was greater than 33.8 µM. `O=C(N/N=C/c1ccc(O)cc1O)c1cccnc1` showed a GI50 of 3.74 µM and a TGI greater than 100 µM. For `O=C(NNc1cnccn1)c1nc2cc(F)ccc2n2cccc12`, the GI50 was 0.346 µM and the TGI was 2.82 µM. For `NCCCOc1cc(Cl)ccc1NC(=O)c1cc2ccccc2cc1OCCCN`, the GI50 was 0.665 µM and the TGI was 2.39 µM. For `C=C1C(=O)OC2C1CC(OC(C)=O)/C(C)=C/CCC1(C)OC21` (stereo not drawn), the TGI was greater than 100 µM. Compound `COc1cc(/C=C/C(=O)C(C(=O)/C=C/c2ccc(OC(=O)CCNC34CC5CC(CC(C5)C3)C4)c(OC)c2)C(=O)CCNC23CC4CC(CC(C4)C2)C3)ccc1OC(=O)CCNC12CC3CC(CC(C3)C1)C2` (stereo not drawn) has a GI50 of 1.95 µM and a TGI of 4.36 µM. In the case of `CCOC(=O)C1=C(N)Oc2c(sc3c(C)cccc23)C1c1ccc(F)cc1` (stereo not drawn), the GI50 is reported as 0.374 µM and the TGI is reported as 4.62 µM. For `NC(N)=N/N=C(\N=Nc1ccccc1)c1ccc(Cl)cc1`, the GI50 was 1.88 µM and the TGI was 3.85 µM.

Each compound was assayed on KM12 colon (assay: DTP human tumour cell line panel, 48 h).
Work on `O=C(CCN1CCOCC1)Nc1cccc(-n2cc(-c3ccncc3)c(-c3ccc(Cl)c(O)c3)n2)c1` yielded a GI50 of 2.46 µM and a TGI of 11.5 µM. With `C=C(C)[C@@H]1CC[C@]2(C)[C@H](CC[C@@H]3[C@@H]([C@@](C)(O)CCC=C(C)C)CC[C@]32C)[C@@]1(C)CCC(=O)O` the GI50 was 16.3 µM and the TGI was 32.4 µM. For `c1ccc(NCCSc2nc3ccccc3s2)cc1`, the TGI was greater than 100 µM. In the case of `Oc1ccc(Oc2cnc3ccccc3n2)cc1`, the GI50 is reported as 45 µM and the TGI is reported as greater than 100 µM. `Cc1ccc2occ/c(=N\Nc3ccccc3)c2c1` showed a TGI of 78.5 µM. With `CC(=O)NC1CONC1=O` (stereo not drawn) the TGI was greater than 100 µM. With `Oc1ccc(N=Nc2nccs2)c(O)c1` the GI50 was 4.57 µM and the TGI was 22.7 µM. `COc1cc(/C=C/C(=O)Oc2ccccc2)ccc1C(=O)O/C=C/c1ccccc1` gave a TGI greater than 100 µM. `CC(Cl)CN1c2ccccc2Sc2ccc(Cl)cc21` (stereo not drawn) gave a TGI greater than 10 µM. With `O=C1c2ccccc2C(=O)c2c(NCCN=Cc3ccccc3O)cccc21` the GI50 was 2.93 µM and the TGI was 8.37 µM. With `Oc1ccc(/C=C/c2cc(O)cc3c2C(c2cc(O)cc(O)c2)C(c2ccc(O)c(O)c2)O3)cc1` (stereo not drawn) the TGI was 87.4 µM. Compound `CC1(C)N=C(N)N=C(N)N1c1cccc(OCCOc2cccc([N+](=O)[O-])c2)c1` has a GI50 of 1.37 µM and a TGI greater than 100 µM. Compound `CCc1nc(Cl)c(Cl)c(Cl)n1` has a TGI greater than 100 µM. `O=[N+]([O-])c1ccc(Sc2c3ccccc3nc3ccccc23)cn1` showed a TGI of 95.1 µM. With `CNC(C)[C@H]1CCC2C3CC=C4C(=O)[C@@H](NC(=O)C=C(C)C)CC[C@]4(C)C3CC[C@@]21C` (stereo partly drawn) the GI50 was 2.46 µM and the TGI was 10.3 µM. `Clc1nc(Cl)c2ncn(Cc3ccccc3Cn3cnc4c(Cl)nc(Cl)nc43)c2n1` showed a GI50 of 2.23 µM and a TGI of 5.37 µM. In the case of `CS(=O)(=O)CS(=O)(=O)OCCCl`, the TGI is reported as 1120 µM. `CC(C)(C)c1cc(C(=O)/C=C/c2ccc(C(=O)O)cc2)cc(C(C)(C)C)c1` was tested, and the TGI was 5.75 µM. `COc1ccc(-c2ccc(NNC(=O)c3ccc(F)cc3)nn2)cc1OC` showed a GI50 greater than 100 µM and a TGI greater than 100 µM. `Cc1noc2c1-c1ccccc1C(c1ccc(Cl)cc1)=N[C@H]2CC(N)=O` was tested, and the GI50 was 12.1 µM and the TGI was greater than 100 µM. Compound `O=C(N/N=C/c1ccc(O)cc1O)c1cccnc1` has a GI50 of 3.62 µM and a TGI greater than 100 µM. Work on `O=C(NNc1cnccn1)c1nc2cc(F)ccc2n2cccc12` yielded a GI50 of 0.509 µM and a TGI greater than 100 µM. With `NCCCOc1cc(Cl)ccc1NC(=O)c1cc2ccccc2cc1OCCCN` the GI50 was 1.48 µM and the TGI was 2.91 µM. Compound `C=C1C(=O)OC2C1CC(OC(C)=O)/C(C)=C/CCC1(C)OC21` (stereo not drawn) has a TGI greater than 100 µM. `COc1cc(/C=C/C(=O)C(C(=O)/C=C/c2ccc(OC(=O)CCNC34CC5CC(CC(C5)C3)C4)c(OC)c2)C(=O)CCNC23CC4CC(CC(C4)C2)C3)ccc1OC(=O)CCNC12CC3CC(CC(C3)C1)C2` (stereo not drawn) gave a GI50 of 2.28 µM and a TGI of 5.96 µM. Work on `CCOC(=O)C1=C(N)Oc2c(sc3c(C)cccc23)C1c1ccc(F)cc1` (stereo not drawn) yielded a GI50 of 0.464 µM and a TGI of 13.6 µM. `NC(N)=N/N=C(\N=Nc1ccccc1)c1ccc(Cl)cc1` was tested, and the GI50 was 2.15 µM and the TGI was 7.76 µM.

What follows are compounds tested on UACC-257 melanoma (assay: DTP human tumour cell line panel, 48 h).
In the case of `O=C(CCN1CCOCC1)Nc1cccc(-n2cc(-c3ccncc3)c(-c3ccc(Cl)c(O)c3)n2)c1`, the GI50 is reported as 1.9 µM and the TGI is reported as 4.42 µM. In the case of `C=C(C)[C@@H]1CC[C@]2(C)[C@H](CC[C@@H]3[C@@H]([C@@](C)(O)CCC=C(C)C)CC[C@]32C)[C@@]1(C)CCC(=O)O`, the GI50 is reported as 23.8 µM and the TGI is reported as 96.4 µM. In the case of `c1ccc(NCCSc2nc3ccccc3s2)cc1`, the TGI is reported as 77 µM. `Oc1ccc(Oc2cnc3ccccc3n2)cc1` was tested, and the GI50 was greater than 100 µM and the TGI was greater than 100 µM. For `Cc1ccc2occ/c(=N\Nc3ccccc3)c2c1`, the TGI was greater than 100 µM. Work on `CC(=O)NC1CONC1=O` (stereo not drawn) yielded a TGI greater than 100 µM. For `Oc1ccc(N=Nc2nccs2)c(O)c1`, the GI50 was 16.4 µM and the TGI was 60.1 µM. Compound `COc1cc(/C=C/C(=O)Oc2ccccc2)ccc1C(=O)O/C=C/c1ccccc1` has a TGI greater than 100 µM. `CC(Cl)CN1c2ccccc2Sc2ccc(Cl)cc21` (stereo not drawn) was tested, and the TGI was greater than 10 µM. `O=C1c2ccccc2C(=O)c2c(NCCN=Cc3ccccc3O)cccc21` gave a GI50 of 4.84 µM and a TGI of 13.4 µM. With `Oc1ccc(/C=C/c2cc(O)cc3c2C(c2cc(O)cc(O)c2)C(c2ccc(O)c(O)c2)O3)cc1` (stereo not drawn) the TGI was greater than 100 µM. Compound `CC1(C)N=C(N)N=C(N)N1c1cccc(OCCOc2cccc([N+](=O)[O-])c2)c1` has a GI50 of 4.32 µM and a TGI greater than 100 µM. `CCc1nc(Cl)c(Cl)c(Cl)n1` was tested, and the TGI was greater than 100 µM. `O=[N+]([O-])c1ccc(Sc2c3ccccc3nc3ccccc23)cn1` gave a TGI of 31.8 µM. Compound `CNC(C)[C@H]1CCC2C3CC=C4C(=O)[C@@H](NC(=O)C=C(C)C)CC[C@]4(C)C3CC[C@@]21C` (stereo partly drawn) has a GI50 of 2.33 µM and a TGI of 5.54 µM.

Reference: PubChem BioAssay (NCI)
